Results on two molecules are retold here after article PMC7661526, “Antibiofilm effects of N,O-acetals derived from 2-amino-1,4-naphthoquinone are associated with downregulation of important global virulence regulators in methicillin-resistant Staphylococcus aureus” (Scientific Reports, 2020).

Converted amounts (≈) assume the structure as drawn. Like-named read-outs stand apart in the source and are kept apart here.

Test [1] has as its system S. aureus ATCC 25923. As to the kind of experiment: MIC, broth microdilution. It is filed as cell-based, Staphylococcus aureus. From the text: (§1) Strain representatives of six globally spread clones/lineages of MRSA were used in this study to test the antimicrobial activity of the N,O-acetal derivatives against MRSA: NY/Japan-USA100/ST5-SCCmecII (strain CR15-071), USA300/ST8-SCCmecIV (strain USA300-0114), USA400/ST1-SCCmecIV (strain USA400-0051), Brazilian epidemic clone-BEC/ST239-SCCmecIII (strain BMB9393), pediatric clone-USA800/ST5-SCCmecIV (strain USA800-0179), and OSPC-USA1100/ST30-SCCmecIV (strain 07-040). The S. aureus ATCC 25923 was used as a control for the experiment of drug susceptibility. […] For biofilm production, tryptic soy broth (TSB; BD, Franklin Lakes, NJ, USA) was supplemented with 1% (w/v) glucose (TSB-Glu). Tryptic soy agar (TSA; BD) was used for bacterial growth. The Mueller-Hinton broth (MHB; BD) and Mueller-Hinton agar (MHA; BD) was used for susceptibility tests. All strains were maintained in 10% (v/v) glycerol stocks and stored at − 80 °C.
(§2) The antibacterial activity of 6a and its derivatives 7a, 7b, and 7c was tested as previously described using paper disks impregnated with each compound[13]. The derivatives were also analyzed quantitatively using microdilution assays in 96-well inert polystyrene microtiter plates (Nuclon; Nalge Nunc International, Rochester, NY, USA) to determine the minimal inhibitory concentration (MIC)[14]. Biological control, as well as growth conditions, were performed following CLSI recommendation[15],[16]. […] Controls were also performed using 2% (v/v) DMSO only.

For test [2], the system named is MRSA BEC (BMB9393). As to the kind of experiment: microbe, parasite or virus in culture. It is filed as cell-based, Staphylococcus aureus. The procedure:
(§3) For biofilm production, tryptic soy broth (TSB; BD, Franklin Lakes, NJ, USA) was supplemented with 1% (w/v) glucose (TSB-Glu). Tryptic soy agar (TSA; BD) was used for bacterial growth. The Mueller-Hinton broth (MHB; BD) and Mueller-Hinton agar (MHA; BD) was used for susceptibility tests. All strains were maintained in 10% (v/v) glycerol stocks and stored at − 80 °C.
(§4) The derivatives were also analyzed quantitatively using microdilution assays in 96-well inert polystyrene microtiter plates (Nuclon; Nalge Nunc International, Rochester, NY, USA) to determine the minimal inhibitory concentration (MIC)[14]. Biological control, as well as growth conditions, were performed following CLSI recommendation[15],[16]. […] Controls were also performed using 2% (v/v) DMSO only.

The test system of test [3] is MRSA NY/Japan-USA100 (CR15-071). As to the kind of experiment: MIC, broth microdilution. Format: cell-based, Staphylococcus aureus. As to the method: as §3, §4
Test [4] concerns MRSA OSPC-USA1100 (07-040). As to the kind of experiment: MIC, broth microdilution. It is filed as cell-based, Staphylococcus aureus. As to the method:
as §3, §4

Test [5] deals with MRSA Pediatric-USA800 (USA800-0179). As to the kind of experiment: MIC, broth microdilution. It is filed as cell-based, Staphylococcus aureus. The procedure: as §3, §4
Test [6] has as its system MRSA USA300 (USA300-0114). As to the kind of experiment: MIC, broth microdilution. Format: cell-based, Staphylococcus aureus. As to the method:
as §3, §4

The test system of test [7] is MRSA USA400 (USA400-0051). The experiment in a line: MIC, broth microdilution. It is filed as cell-based, Staphylococcus aureus. As to the method:
as §3, §4

For test [8], the system named is S. aureus ATCC 25923. The experiment in a line: Disk diffusion test. It is filed as cell-based, Staphylococcus aureus.
Text: as §1, §2

The test system of test [9] is MRSA ST239-SCCmecIII (BMB9393). The experiment in a line: Disk diffusion test. Format: cell-based, Staphylococcus aureus.
Test [10] deals with MRSA ST5-SCCmecII (USA100). As to the kind of experiment: Disk diffusion test. It is filed as cell-based, Staphylococcus aureus.
The subject of test [11] is MRSA ST8-SCCmecIV (USA300). The experiment in a line: Disk diffusion test. Format: cell-based, Staphylococcus aureus.
For test [12], the system named is MRSA (ST1-SCCmecIV) (USA400). The experiment in a line: Disk diffusion test. It is filed as cell-based, Staphylococcus aureus.
Test [13] concerns MRSA ST30-SCCmecIV (USA1100). The experiment in a line: Disk diffusion test. It is filed as cell-based, Staphylococcus aureus.
The subject of test [14] is MRSA ST5-SCCmecIV (USA800). As to the kind of experiment: Disk diffusion test. Format: cell-based, Staphylococcus aureus.
Test [15] concerns mecA. As to the kind of experiment: Real-time RT-qPCR of biofilm-associated genes. Format: cell-based, Staphylococcus aureus.
For test [16], the system named is fnbA. As to the kind of experiment: Real-time RT-qPCR of biofilm-associated genes. It is filed as cell-based, Staphylococcus aureus.
The test system of test [17] is spa. The experiment in a line: Real-time RT-qPCR of biofilm-associated genes. Format: cell-based, Staphylococcus aureus.
Test [18] concerns rnaIII. The experiment in a line: Real-time RT-qPCR of global regulators. It is filed as cell-based, Staphylococcus aureus.
Test [19] deals with sigB. As to the kind of experiment: Real-time RT-qPCR of global regulators. Format: cell-based, Staphylococcus aureus.
Test [20] relates to atlA. The experiment in a line: Autolytic system: atlA real-time qRT-PCR. Format: cell-based, Staphylococcus aureus.
Test [21] deals with MRSA strain BMB9393. As to the kind of experiment: Autolytic system: extracellular DNA (eDNA) in supernatant. Format: cell-based, Staphylococcus aureus. The settings on record: 1/4MIC, 7b stated relative to 7c.
Test [22] deals with MRSA strain BMB9393 biofilm. As to the kind of experiment: Confocal laser scanning microscopy (CLSM) of biofilm. The settings on record: 1/4MIC (7b 32 µg/mL, 7c 16 µg/mL); SYTO 9; compared with untreated biofilms. It is filed as cell-based, Staphylococcus aureus. As to the method:
For CLSM experiments, after 24 h of incubation, the supernatant containing planktonic cells was gently removed, and biofilm treated with 25 nM SYTO 9 DNA-intercalating stain (Invitrogen; Carlsbad, CA, EUA), as previously described. Before visualization, SYTO 9 solution was removed and the material visualized using a confocal laser scanning microscope (Model LSM510 Carl Zeiss Meditec; Jena, Germany). The microscope was configured with the argon laser (458 nm/477 nm/488 nm/514 nm). The images were randomly captured with the […]. Controls were performed using 2% (v/v) DMSO only (final concentration). Three independent experiments were performed in quadruplicate.

Test [23] concerns hla.
[24] abbreviates: Table 2, used for SI, strain not given, values of 6a-7c equal those for BEC (BMB9393).

Regarding `CCOCNC1=CC(=O)c2ccccc2C1=O` [7b, 2-(ethoxymethyl)-amino-1,4-naphthoquinone], the MIC is 64 µg/mL (≈ 277 µM) in test [1] (Staphylococcus aureus, ATCC25923, control strain S. aureus ATCC 25923, read-out: MIC); 128 µg/mL (≈ 554 µM) in test [2] (Staphylococcus aureus, MRSA); 128 µg/mL (≈ 554 µM) in test [2] (setting [24]); 128 µg/mL (≈ 554 µM) in test [3] (Staphylococcus aureus); 256 µg/mL (≈ 1110 µM) in test [4] (Staphylococcus aureus, MRSA); 256 µg/mL (≈ 1110 µM) in test [5] (Staphylococcus aureus). Besides, the MIC was 64 µg/mL (≈ 277 µM) in [6] (Staphylococcus aureus) and 128 µg/mL (≈ 554 µM) in test [7] (Staphylococcus aureus). In addition, the Inhibition zone in test [8] turned out to be 12.5±3.5 mm; in test [9], 10±1.0 mm; in [10], 13±2.0 mm; in test [11], 12±2.0 mm; in [12], 13±1.0 mm; in test [13] it was 13±1.0 mm. In test [14], this molecule returned an Inhibition zone of 13±0.5 mm. Further, the mecA expression entry in [15] is “not significantly affected”. Besides, the “Reduction of fnbA expression” value in test [16] is given as 89.3% ± 1.5%. Also, the “Reduction of spa expression” value in test [17] is recorded as 95.4 ± 0.9%. Further, the “Reduction of RNAIII transcripts” value in [18] is given as 88.0 ± 1.1%. Moreover, the “Increase of sigB transcripts” value in test [19] is given as “did not affect”. In addition, in test [20], the “Increase in atlA transcripts” value was found to be 3.5 times. The “Amount of eDNA in bacterial supernatant (cell lysis)” value in test [21] is “even higher (about two-fold)”. In addition, the “Biofilm accumulation by CLSM” value in test [22] is listed as “decrease biofilm accumulation massively”. In [23], the “Reduction of hla expression” value turned out to be 90.0 ± 0.6%.

In the case of `C#CCOCNC1=CC(=O)c2ccccc2C1=O` [7c, 2-(propynyloxymethyl)-amino-1,4-naphthoquinone], the MIC in test [1] (control strain S. aureus ATCC 25923) was 16 µg/mL (≈ 66.3 µM); in test [2] (setting [24]) it was 64 µg/mL (≈ 265 µM); in [2] (broth microdilution, BEC (BMB9393)) it was 64 µg/mL (≈ 265 µM); in test [3] (broth microdilution, NY/Japan-USA100 (CR15-071)), 128 µg/mL (≈ 531 µM); in [4] (broth microdilution, OSPC-USA1100 (07-040)), 128 µg/mL (≈ 531 µM); in [5] (broth microdilution, Pediatric-USA800 (USA800-0179)), 64 µg/mL (≈ 265 µM). Moreover, the MIC in test [6] (broth microdilution, USA300 (USA300-0114)) was determined as 64 µg/mL (≈ 265 µM); in test [7] (broth microdilution, USA400 (USA400-0051)), 64 µg/mL (≈ 265 µM). Also, the Inhibition zone in [8] stood at 14±3.4 mm; in test [9], 13±1.0 mm; in test [10], 12±1.5 mm; in [11], 13±1.3 mm; in test [12], 11±0.8 mm; in test [13], 15±0.8 mm. Moreover, the Inhibition zone in test [14] is 13±1.0 mm. For the same molecule, the mecA expression entry in [15] was “not significantly affected”. Moreover, in test [16], the “Reduction of fnbA expression” value is 24.64% ± 3.5%. For the same molecule, the “Reduction of spa expression” value in test [17] is 74.82 ± 4.9%. Moreover, in test [18], the “Reduction of RNAIII transcripts” value was found to be 70.6 ± 2.2%. The “Increase of sigB transcripts” value in test [19] was found to be 57.22 ± 5.2%. Moreover, the “Increase in atlA transcripts” value in test [20] is listed as “three-fold increase”. Also, the “Amount of eDNA in bacterial supernatant (cell lysis)” value in test [21] is recorded as “increased”. Also, the “Biofilm accumulation by CLSM” value in test [22] is “decrease biofilm accumulation massively”. Besides, the “Reduction of hla expression” value in test [23] worked out at 86.5 ± 1.0%.
